# Experimental data from ChEMBL document CHEMBL1152082, “Topographical requirements for delta opioid ligands: The synthesis and biological properties of a cyclic analogue of deltorphin I” (Bioorg Med Chem Lett, 1992).
# Bridge positions count the residues as written; N and C are the ends. Square brackets hold non-standard residues; d marks the D form. Peptide text beside a SMILES is read from it.
# Tests used:
# Mu-type opioid receptor [1] = molecular target: Mu-type opioid receptor (Rattus norvegicus, UniProt P33535); assay: Binding affinity against Opioid receptor mu 1 with [3H]CTOP
# [2] = molecular target: Delta-type opioid receptor (Mus musculus, UniProt P32300); assay: Inhibitory activity against Mouse vas deferens smooth muscle; type: functional, tissue-based, Muscle tissue
# [3] = molecular target: Delta-type opioid receptor (Rattus norvegicus, UniProt P33533); assay: Binding affinity against delta receptor with [3H][p-Cl-Phe4]-DPDPE
# Mu-type opioid receptor [4] = molecular target: Mu-type opioid receptor (Cavia porcellus, UniProt P97266); assay: Inhibitory activity against Guinea pig ileum smooth muscle; type: functional, tissue-based
# Sequence of Mu-type opioid receptor (Cavia porcellus, UniProt P97266) (P97266 whole entry): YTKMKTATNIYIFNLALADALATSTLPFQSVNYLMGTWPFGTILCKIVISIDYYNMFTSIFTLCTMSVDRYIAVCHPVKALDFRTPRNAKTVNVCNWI
# Sequence of Mu-type opioid receptor (Rattus norvegicus, UniProt P33535) (P33535 whole entry): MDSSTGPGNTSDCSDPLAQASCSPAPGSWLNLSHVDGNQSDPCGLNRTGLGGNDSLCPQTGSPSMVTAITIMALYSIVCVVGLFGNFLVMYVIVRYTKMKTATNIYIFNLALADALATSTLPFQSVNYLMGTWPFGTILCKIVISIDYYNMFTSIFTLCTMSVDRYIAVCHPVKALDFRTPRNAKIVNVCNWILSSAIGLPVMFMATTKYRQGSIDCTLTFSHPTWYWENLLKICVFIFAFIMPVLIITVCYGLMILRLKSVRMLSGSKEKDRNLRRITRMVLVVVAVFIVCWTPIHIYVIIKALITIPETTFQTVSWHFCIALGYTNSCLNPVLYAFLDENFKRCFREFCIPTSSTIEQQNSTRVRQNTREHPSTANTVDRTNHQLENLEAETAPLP
# Sequence of Delta-type opioid receptor (Rattus norvegicus, UniProt P33533) (P33533 whole entry): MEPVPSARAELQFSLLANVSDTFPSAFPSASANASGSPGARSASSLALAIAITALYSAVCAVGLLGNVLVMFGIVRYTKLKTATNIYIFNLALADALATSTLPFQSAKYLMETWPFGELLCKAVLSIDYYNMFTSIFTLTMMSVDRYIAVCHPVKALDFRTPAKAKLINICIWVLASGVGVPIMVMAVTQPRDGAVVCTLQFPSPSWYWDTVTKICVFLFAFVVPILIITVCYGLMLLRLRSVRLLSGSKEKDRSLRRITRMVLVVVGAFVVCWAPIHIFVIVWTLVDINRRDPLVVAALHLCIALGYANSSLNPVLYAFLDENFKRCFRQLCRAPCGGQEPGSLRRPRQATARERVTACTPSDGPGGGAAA
# Sequence of Delta-type opioid receptor (Mus musculus, UniProt P32300) (P32300 whole entry): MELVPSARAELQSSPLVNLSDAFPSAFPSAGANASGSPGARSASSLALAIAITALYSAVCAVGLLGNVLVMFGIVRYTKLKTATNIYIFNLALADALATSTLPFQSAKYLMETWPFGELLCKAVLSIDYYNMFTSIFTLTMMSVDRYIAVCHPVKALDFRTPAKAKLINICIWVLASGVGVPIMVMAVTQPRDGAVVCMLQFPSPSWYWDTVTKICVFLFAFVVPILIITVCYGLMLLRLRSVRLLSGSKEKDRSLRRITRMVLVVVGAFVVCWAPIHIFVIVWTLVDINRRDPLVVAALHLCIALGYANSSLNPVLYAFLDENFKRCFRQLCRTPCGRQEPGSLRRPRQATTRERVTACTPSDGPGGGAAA
Compound,IC50 (Mu-type opioid receptor [1]) [nM],IC50 [2] [nM],IC50 [3] [nM],IC50 (Mu-type opioid receptor [4]) [nM]
CC(C)[C@H](NC(=O)[C@@H]1CSSC[C@@H](NC(=O)[C@@H](N)Cc2ccc(O)cc2)C(=O)N[C@@H](Cc2ccccc2)C(=O)N[C@@H](CC(=O)O)C(=O)N1)C(=O)NCC(N)=O (H-Y[dC]FDCVG-NH2; disulfide 2-5),5.15,0.23,0.87,2.98
"CC(NC(=O)[C@@H](N)Cc1ccc(O)cc1)C(=O)N[C@@H](Cc1ccccc1)C(=O)N[C@@H](CC(=O)O)C(=O)N[C@H](C(=O)N[C@H](C(=O)NCC(N)=O)C(C)C)C(C)C (single isomer, unassigned) [DELTORPHIN C]",2140,–,0.6,2.89
